pIC50, pKi: −log10 of the molar value. Counter-ions that a name gives are not always drawn. Like-named read-outs stand apart in the source and are kept apart here.
Experiments:
CDK2/Cyclin A = CDK2/Cyclin A (Homo sapiens, UniProt P24941); experiment: Inhibition of CDK2/Cyclin A Retinoblastoma Kinase Activity; format: biochemical; conditions: for pKi: apparent Ki, CDK2/proteolyzed cyclin A, Rb fragment substrate, 25 μM ATP
In short: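 Radiometric filter-binding readout of phosphate transfer to an Rb substrate fragment by purified CDK2/truncated cyclin A at 10 or 19 nM. Run at pH 7.4 with 25 μM ATP, 30 °C, 60–75 min, linear rates; background without enzyme subtracted, Ki from competitive-inhibition models.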

[1] = target: human CDK4 and genetically truncated (1-264) cyclin D3 (Homo sapiens, UniProt P11802); experiment: Inhibition of CDK4/Cyclin D Retinoblastoma Kinase Activity; format: biochemical; conditions: for pKi: apparent Ki, CDK4/truncated cyclin D3, Rb fragment substrate, 25 μM ATP
human CDK4 and genetically truncated (1-264) cyclin D3, sequence (P11802 whole entry, the tested form may be a part): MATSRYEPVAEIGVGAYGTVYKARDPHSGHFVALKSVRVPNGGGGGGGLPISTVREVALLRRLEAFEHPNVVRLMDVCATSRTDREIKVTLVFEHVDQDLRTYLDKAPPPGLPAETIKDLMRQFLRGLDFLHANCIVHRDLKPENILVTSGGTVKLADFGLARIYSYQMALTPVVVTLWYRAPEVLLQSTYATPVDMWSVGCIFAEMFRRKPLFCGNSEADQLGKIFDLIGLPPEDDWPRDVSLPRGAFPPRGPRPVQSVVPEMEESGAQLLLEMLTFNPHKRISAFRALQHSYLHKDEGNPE
human CDK4 and genetically truncated (1-264) cyclin D3, sequence (P30281 1-264 partner): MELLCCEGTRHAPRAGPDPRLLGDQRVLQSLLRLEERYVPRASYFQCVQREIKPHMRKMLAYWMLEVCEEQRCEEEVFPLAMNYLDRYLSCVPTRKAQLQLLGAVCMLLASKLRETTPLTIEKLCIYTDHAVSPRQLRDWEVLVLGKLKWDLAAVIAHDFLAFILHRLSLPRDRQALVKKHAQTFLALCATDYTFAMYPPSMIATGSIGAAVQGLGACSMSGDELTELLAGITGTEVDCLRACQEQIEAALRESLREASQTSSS
In short: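 Apparent Ki values come from competitive or competitive tight-binding inhibition fits of background-corrected 32P/33P incorporation into His-tagged Rb fragment (386-928), captured on nitrocellulose. Reaction: 5 nM insect-cell-expressed human CDK4 with cyclin D3 (1-264), 25 μM ATP, pH 7.4 HEPES, 2% DMSO, 30° C., 20 min, extended to 60 min for tight-binding inhibitors.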

HCT-116 cell line = experiment: Inhibition of cell growth, tetrazolium salt (MTT) assay; format: cell-based; conditions: for pIC50: Homo sapiens, HCT-116, 120 h, MTT, three to five days, read-out: HCT-116 IC50; for HCT-116 % Inhibition at 0.25 μM: 0.25 μM compound
In short: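 First, cells were seeded in McCoy's 5A medium and held 4 h. Next, inhibitor concentrations in 0.5% (v/v) DMSO were applied for three to five days at 37° C, 5% CO2. Finally, after 4 h with 0.2 mg/mL MTT and medium removal, solubilized formazan was measured at 540 nm.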

Structure (SMILES) | pKi (CDK2/Cyclin A) | pKi [1] | pIC50 (HCT-116 cell line; first HCT-116 column (c4)) | pIC50 (HCT-116 cell line; second HCT-116 column (c5)) | CDK2 % Inhibition at 0.03 μM (CDK2/Cyclin A; at 0.03 μM) | CDK4 % Inhibition at 0.03 μM ([1]; at 0.03 μM) | HCT-116 % Inhibition at 0.1 μM (HCT-116 cell line; HCT-116 cells, at 0.1 μM) | HCT-116 5 Inhibition at 0.25 μM (HCT-116 cell line; HCT-116 cells) | also measured
Cc1cccc(C(=O)N2CCC(Nc3nc(N)c(C(=O)c4c(F)cccc4F)s3)CC2)c1C [Example R125] | – | – | – | – | 18% | 33% | 0% | 42 | –
Nc1nc(NC2CCN(S(=O)(=O)c3ccc(CNC(=O)c4ccc(Cl)cc4)s3)CC2)sc1C(=O)c1c(F)cccc1F [Example P66] | – | – | – | – | – | – | – | – | CDK2 % Inhibition at 0.03 μM (CDK2/Cyclin A; 0.03 μM compound, Table 3): 55%; CDK4 % Inhibition at 0.03 μM ([1]; 0.03 μM compound, Table 3): 57%; HCT-116 % Inhibition at 0.1 μM (HCT-116 cell line; 0.1 μM compound, HCT-116, Table 3): 12%; HCT-116 % Inhibition at 0.25 μM (HCT-116 cell line; HCT-116, Table 3): 34%
COC(=O)c1ccc(C(=O)N2CCC(Nc3nc(N)c(C(=O)c4c(F)cccc4F)s3)CC2)cc1 [Example R151] | – | – | – | – | 24% | 39% | 0% | 43 | –
Cc1ccc(O)c(C(=O)N2CCC(Nc3nc(N)c(C(=O)c4c(F)cccc4F)s3)CC2)c1 [Example R122] | – | – | – | – | 61% | 67% | 0% | 48 | –
Nc1nc(NC2CCN(C(=O)C(Cl)(c3ccccc3)c3ccccc3)CC2)sc1C(=O)c1c(F)cccc1F [Example Q51] | – | – | – | – | – | – | – | – | CDK2 % Inhibition at 0.03 μM (CDK2/Cyclin A; 0.03 μM compound, Table 4): 4%; CDK4 % Inhibition at 0.03 μM ([1]; 0.03 μM compound, Table 4): 22%; HCT-116 % Inhibition at 0.1 μM (HCT-116 cell line; 0.1 μM compound, HCT-116, Table 4): 0%; HCT-116 % Inhibition at 0.25 μM (HCT-116 cell line; HCT-116, Table 4): 34%
Nc1nc(NC2CCN(C(=O)c3cccnc3Oc3ccc(Cl)cc3)CC2)sc1C(=O)c1c(F)cccc1F [Example R44] | – | – | – | – | 16% | 25% | 0% | 41 | –
Nc1nc(NC2CCN(C(=O)c3cccc(Cl)c3Cl)CC2)sc1C(=O)c1c(F)cccc1F [Example R106] | – | – | – | – | 2% | 19% | 2% | 72 | –

Now from value to compound, other results behind:

pKi (CDK2/Cyclin A) | pKi [1] | pIC50 (HCT-116 cell line; first HCT-116 column (c4)) | pIC50 (HCT-116 cell line; second HCT-116 column (c5)) | CDK2 % Inhibition at 0.03 μM (CDK2/Cyclin A; at 0.03 μM) | CDK4 % Inhibition at 0.03 μM ([1]; at 0.03 μM) | Structure (SMILES) | HCT-116 % Inhibition at 0.1 μM (HCT-116 cell line; HCT-116 cells, at 0.1 μM) | HCT-116 5 Inhibition at 0.25 μM (HCT-116 cell line; HCT-116 cells) | also measured
8.82 | 9.17 | 7.15 | < 6.30 | – | – | CN(C)CCCSc1ccc(S(=O)(=O)N2CCC(Nc3nc(N)c(C(=O)c4c(F)cccc4F)s3)CC2)cn1 [Example L5, 1-(4-Amino-2-{1-[6-(3-dimethylamino-propylsulfanyl)-pyridine-3-sulfonyl]-piperidin-4-ylamino}-thiazol-5-yl)-1-(2,6-difluoro-phenyl)-methanone Dihydrochloride.] | – | – | –
8.92 | 9.17 | 6.70 | 5.72 | – | – | CN(C)CCCc1ccc(S(=O)(=O)N2CCC(Nc3nc(N)c(C(=O)c4c(F)cccc4F)s3)CC2)cc1 [Example I10, 1-(4-Amino-2-{1-[4-(3-dimethylamino-propyl)-benzenesulfonyl]-piperidin-4-ylamino}-thiazol-5-yl)-1-(2,6-difluoro-phenyl)-methanone D-Glucuronic Acid Salt] | – | – | –
8.55 | 9.11 | 7.10 | 6.60 | – | – | Nc1nc(NC2CCN(S(=O)(=O)c3ccc(OCCN4CCOCC4)nc3)CC2)sc1C(=O)c1c(F)cccc1F [Example H2, 1-{4-Amino-2-[1-{6-morpholin-(4-yl-ethoxy)-pyridine-3-sulfonyl}-piperidin-4-ylamino]-thiazol-5-yl}-1-(2,6-difluoro-phenyl)-methanone Hydrochloride] | – | – | –
9.00 | 8.72 | 7.30 | 6.82 | – | – | CC[C@H](NCCS(=O)(=O)N1CCC(Nc2nc(N)c(C(=O)c3c(F)cccc3F)s2)CC1)c1ccccc1 [Example K42, (4-Amino-2-{1-[2-(1S-phenyl-propylamino)-ethanesulfonyl]-piperidin-4-ylamino}-thiazol-5-yl)-(2,6-difluoro-phenyl)-methanone] | – | – | –
> 9.00 | 9.07 | 6.38 | < 5.30 | – | – | Nc1nc(NC2CCN(S(=O)(=O)c3ccc(N4CCC(O)C4)nc3)CC2)sc1C(=O)c1c(F)cccc1F (stereo not drawn) [Example G11, 1-(4-Amino-2-{1-[6-(3-hydroxy-pyrrolidin-1-yl)-pyridin-3-sulfonyl]-piperidin-4-ylamino}-thiazol-5-yl)-1-(2,6-difluoro-phenyl)-methanone Trifluoroacetic Acid Salt] | – | – | –
